{"source": "PubChem BioAssay (NCI)", "experiment_in_all_cases": "NCI-60 cell line screen, 48 h", "key": {"OVCAR-4 ovarian": {"tested_on": "OVCAR-4 ovarian"}, "ACHN renal": {"tested_on": "ACHN renal"}, "HOP-62 NSCLC": {"tested_on": "HOP-62 NSCLC"}, "U251 CNS": {"tested_on": "U251 CNS"}, "MDA-MB-231 breast": {"tested_on": "MDA-MB-231 breast"}, "HCT-116 colon": {"tested_on": "HCT-116 colon"}, "MALME-3M melanoma": {"tested_on": "MALME-3M melanoma"}, "NCI/ADR-RES ovarian": {"tested_on": "NCI/ADR-RES ovarian"}, "HT29 colon": {"tested_on": "HT29 colon"}, "SN12C renal": {"tested_on": "SN12C renal"}, "SF-295 CNS": {"tested_on": "SF-295 CNS"}, "OVCAR-8 ovarian": {"tested_on": "OVCAR-8 ovarian"}}, "note": "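A five-concentration, 48-hour dose response in 96-well plates underlies each endpoint, interpolated linearly between surrounding concentrations. TGI is the concentration that stops growth completely.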"}
{"smiles": "Cc1ccc(C)n1-n1c(-c2ccccc2)n[nH]c1=O", "values": [{"measurement": "TGI", "setting": "OVCAR-4 ovarian", "result": "> 100", "unit": "µM"}, {"measurement": "TGI", "setting": "ACHN renal", "result": "> 100", "unit": "µM"}, {"measurement": "TGI", "setting": "HOP-62 NSCLC", "result": "> 100", "unit": "µM"}, {"measurement": "TGI", "setting": "U251 CNS", "result": "> 100", "unit": "µM"}, {"measurement": "TGI", "setting": "MDA-MB-231 breast", "result": "> 100", "unit": "µM"}, {"measurement": "TGI", "setting": "HCT-116 colon", "result": "> 100", "unit": "µM"}, {"measurement": "TGI", "setting": "MALME-3M melanoma", "result": "> 100", "unit": "µM"}, {"measurement": "TGI", "setting": "NCI/ADR-RES ovarian", "result": "> 100", "unit": "µM"}, {"measurement": "TGI", "setting": "HT29 colon", "result": "> 100", "unit": "µM"}, {"measurement": "TGI", "setting": "SN12C renal", "result": "> 100", "unit": "µM"}, {"measurement": "TGI", "setting": "SF-295 CNS", "result": "> 100", "unit": "µM"}, {"measurement": "TGI", "setting": "OVCAR-8 ovarian", "result": "> 100", "unit": "µM"}]}
{"smiles": "O=[As](O)(O)c1ccc2nc3cc([As](=O)(O)O)ccc3nc2c1", "values": [{"measurement": "TGI", "setting": "OVCAR-4 ovarian", "result": "> 100", "unit": "µM"}, {"measurement": "TGI", "setting": "ACHN renal", "result": "> 100", "unit": "µM"}, {"measurement": "TGI", "setting": "HOP-62 NSCLC", "result": "> 100", "unit": "µM"}, {"measurement": "TGI", "setting": "U251 CNS", "result": "> 100", "unit": "µM"}, {"measurement": "TGI", "setting": "MDA-MB-231 breast", "result": "> 100", "unit": "µM"}, {"measurement": "TGI", "setting": "HCT-116 colon", "result": "> 100", "unit": "µM"}, {"measurement": "TGI", "setting": "MALME-3M melanoma", "result": "> 100", "unit": "µM"}, {"measurement": "TGI", "setting": "NCI/ADR-RES ovarian", "result": "> 100", "unit": "µM"}, {"measurement": "TGI", "setting": "HT29 colon", "result": "> 100", "unit": "µM"}, {"measurement": "TGI", "setting": "SN12C renal", "result": "> 100", "unit": "µM"}, {"measurement": "TGI", "setting": "SF-295 CNS", "result": "> 100", "unit": "µM"}, {"measurement": "TGI", "setting": "OVCAR-8 ovarian", "result": "> 100", "unit": "µM"}]}
{"smiles": "CCN(CC)CCNc1ccc(C)c2sc3ccccc3c(=O)c12", "values": [{"measurement": "TGI", "setting": "OVCAR-4 ovarian", "result": 18.1, "unit": "µM"}, {"measurement": "TGI", "setting": "ACHN renal", "result": 11.5, "unit": "µM"}, {"measurement": "TGI", "setting": "HOP-62 NSCLC", "result": 24.2, "unit": "µM"}, {"measurement": "TGI", "setting": "U251 CNS", "result": 5.65, "unit": "µM"}, {"measurement": "TGI", "setting": "MDA-MB-231 breast", "result": 7.96, "unit": "µM"}, {"measurement": "TGI", "setting": "HCT-116 colon", "result": 4.31, "unit": "µM"}, {"measurement": "TGI", "setting": "MALME-3M melanoma", "result": 9.46, "unit": "µM"}, {"measurement": "TGI", "setting": "NCI/ADR-RES ovarian", "result": 16.9, "unit": "µM"}, {"measurement": "TGI", "setting": "HT29 colon", "result": 3.52, "unit": "µM"}, {"measurement": "TGI", "setting": "SN12C renal", "result": 12.2, "unit": "µM"}, {"measurement": "TGI", "setting": "SF-295 CNS", "result": 5.66, "unit": "µM"}, {"measurement": "TGI", "setting": "OVCAR-8 ovarian", "result": 13.3, "unit": "µM"}]}
{"smiles": "O=C(NNC(=S)NCc1ccccc1)C12CC3CC(CC(C3)C1)C2", "values": [{"measurement": "TGI", "setting": "OVCAR-4 ovarian", "result": "> 100", "unit": "µM"}, {"measurement": "TGI", "setting": "ACHN renal", "result": "> 100", "unit": "µM"}, {"measurement": "TGI", "setting": "HOP-62 NSCLC", "result": "> 100", "unit": "µM"}, {"measurement": "TGI", "setting": "U251 CNS", "result": "> 100", "unit": "µM"}, {"measurement": "TGI", "setting": "MDA-MB-231 breast", "result": "> 100", "unit": "µM"}, {"measurement": "TGI", "setting": "HCT-116 colon", "result": "> 100", "unit": "µM"}, {"measurement": "TGI", "setting": "MALME-3M melanoma", "result": "> 100", "unit": "µM"}, {"measurement": "TGI", "setting": "NCI/ADR-RES ovarian", "result": "> 100", "unit": "µM"}, {"measurement": "TGI", "setting": "HT29 colon", "result": "> 100", "unit": "µM"}, {"measurement": "TGI", "setting": "SN12C renal", "result": "> 100", "unit": "µM"}, {"measurement": "TGI", "setting": "SF-295 CNS", "result": "> 100", "unit": "µM"}, {"measurement": "TGI", "setting": "OVCAR-8 ovarian", "result": "> 100", "unit": "µM"}]}
{"smiles": "COC(=O)c1c(C(=O)OC)c2c3ccccc3n(C)c2c2c1c1ccccc1n2C", "values": [{"measurement": "TGI", "setting": "OVCAR-4 ovarian", "result": "> 100", "unit": "µM"}, {"measurement": "TGI", "setting": "ACHN renal", "result": "> 100", "unit": "µM"}, {"measurement": "TGI", "setting": "HOP-62 NSCLC", "result": 75, "unit": "µM"}, {"measurement": "TGI", "setting": "U251 CNS", "result": "> 100", "unit": "µM"}, {"measurement": "TGI", "setting": "MDA-MB-231 breast", "result": "> 100", "unit": "µM"}, {"measurement": "TGI", "setting": "HCT-116 colon", "result": "> 100", "unit": "µM"}, {"measurement": "TGI", "setting": "MALME-3M melanoma", "result": "> 100", "unit": "µM"}, {"measurement": "TGI", "setting": "NCI/ADR-RES ovarian", "result": "> 100", "unit": "µM"}, {"measurement": "TGI", "setting": "HT29 colon", "result": "> 100", "unit": "µM"}, {"measurement": "TGI", "setting": "SN12C renal", "result": "> 100", "unit": "µM"}, {"measurement": "TGI", "setting": "SF-295 CNS", "result": "> 100", "unit": "µM"}, {"measurement": "TGI", "setting": "OVCAR-8 ovarian", "result": "> 100", "unit": "µM"}]}
